From ChEMBL document CHEMBL5376003, “Structure-Activity Relationship of FL118 Platform Position 7 Versus Position 9-Derived Compounds and Their Mechanism of Action and Antitumor Activity” (J Med Chem, 2023) come the findings set out here.

Calls of active or inactive are those of the source. The calls are words filed in the database; no cut-off is given here.

The nature of data set [1]: Toxicity in SCID mouse xenografted with human PDX27454 cells assessed as body weight loss at 3 to 5 mg/kg,po administrated once per week for 4 weeks. It is filed as organism-based. To be noted: in vivo, 672 h, dose 3-5 mg/kg. (A xenograft is tissue or cells of one species grown in another, often human tumour cells in immunodeficient mice.)
Data set [2] is described as follows: Toxicity in SCID mouse xenografted with human PDX27454 cells assessed as animal death at 10 mg/kg,ip administrated once per week for 4 weeks. To be noted: in vivo, 672 h. The format is organism-based.
Data set [3] can be described thus: Toxicity in SCID mouse xenografted with human PDX27454 cells assessed as body weight loss at 7 mg/kg,po administrated once per week for 4 weeks. The format is organism-based. To be noted: in vivo, 672 h.
Data set [4] has as its system PDX27454. Kind of data set: Antitumor activity against human PDX27454 cells xenografted in SCID mouse model assessed as reduction in tumor growth at 2.5 to 10 mg/kg,ip administrated once per week for 4 weeks. It is filed as functional, organism-based. The following applies: dose 2.5-10 mg/kg.
For data set [5], the system named is HCT-116. Kind of data set: Induction of apoptosis in human HCT-116 cells assessed as downregulation of DHODH gene expression at 10 to 500 nM incubated for 6 to 48 hrs by RNA analysis. The format is functional, cell-based. The following applies: dose 10-500 nM, time 6-48 hrs.
Data set [6] deals with HCT-116. Kind of data set: Induction of apoptosis in human HCT-116 cells assessed as downregulation of GNPDA2 gene expression at 10 to 500 nM incubated for 6 to 48 hrs by RNA analysis. The format is functional, cell-based. To be noted: dose 10-500 nM, time 6-48 hrs.
Data set [7] relates to HCT-116. Kind of data set: Induction of apoptosis in human HCT-116 cells assessed as late apoptotic cells at 10 nM incubated for 48 hrs by Annexin V-FITC/PI staining based flow cytometry assay. It is filed as functional. In general terms: A flow cytometer gives signals particle by particle.
The subject of data set [8] is HCT-116. Kind of data set: Induction of cell cycle arrest in human HCT-116 cells assessed as accumulation of cells at S phase at 2.5 to 10 nM incubated for 48 hrs by Annexin V-FITC/PI staining based flow cytometry assay. The format is functional. The following applies: dose 2.5-10 nM.
The test system of data set [9] is PDX27454. The data set can be described thus: Antitumor activity against human PDX27454 cells xenografted in SCID mouse model assessed as reduction in tumor growth at 5 to 15 mg/kg,ip administrated once per week for 4 weeks. The format is functional, organism-based. The following applies: dose 5-15 mg/kg.
In data set [10] the test system is HCT-116. Kind of data set: Induction of apoptosis in human HCT-116 cells assessed as increase in caspase-9 activity incubated for 48 hrs by BCA protein assay. The format is functional, cell-based.
A further data set has as its system Cell membrane. Kind of data set: Induction of mitochondrial membrane potential loss in human HCT-116 cells assessed as ratio of red to green fluorescence intensity at 20 nM incubated for 24 hrs by JC-1 staining based flow cytometry. It is filed as subcellular.
Data set [11] deals with HCT-116. The data set can be described thus: Induction of apoptosis in human HCT-116 cells assessed as increase in caspase-3 activity incubated for 48 hrs by BCA protein assay. The format is functional, cell-based.
The nature of data set [12]: Toxicity in SCID mouse xenografted with human PDX27454 cells assessed as body weight loss at 10 mg/kg,ip administrated once per week for 4 weeks. The format is organism-based. To be noted: in vivo, 672 h.
Data set [13] in a line: Toxicity in SCID mouse xenografted with human PDX27454 cells assessed as body weight loss at 10 mg/kg,po administrated once per week for 4 weeks. The following applies: in vivo, 672 h. The format is organism-based.

As to `CC[C@@]1(O)C(=O)OCc2c1cc1n(c2=O)Cc2c-1nc1cc3c(cc1c2-c1ccc(OC)cc1)OCO3`, the values for the Activity entry in data set [1], in data set [2] and in [3] were “Toxic”, “Toxic” and over 20%, respectively. Besides, in the data set with PDX27454 [4], the result was Active.

`CC[C@@]1(O)C(=O)OCc2c1cc1n(c2=O)Cc2cc3cc4c(cc3nc2-1)OCO4`: the result with HCT-116 [5] and in the data set on HCT-116 [6] was Active.

Turning to `CC[C@@]1(O)C(=O)OCc2c1cc1n(c2=O)Cc2c-1nc1cc3c(cc1c2-c1cc(OC)cc(OC)c1)OCO3`, the Activity is 10.87% in the data set with HCT-116 [7], “Dose-Dependent Effect” in the data set with HCT-116 [10] and “Dose-Dependent Effect” with HCT-116 [11]. Besides, the result with HCT-116 [8] and with PDX27454 [9] was Active. Further, the Ratio in the data set on Cell membrane is 2.62.

On to `CCc1ccc(-c2c3c(nc4cc5c(cc24)OCO5)-c2cc4c(c(=O)n2C3)COC(=O)[C@]4(O)CC)cc1`, for which the Activity result was “Non-Toxic” in data set [12] and “Toxic” in data set [13].
